Results as given in paper PMC8959600 (eLife, 2022).
Converted amounts (≈) assume the structure as drawn.

Key:
S. sonnei 02–1181 = experiment: Solid medium test at 10 µM and dose-response MIC against MDR clinical isolate; type: cell-based, Shigella sonnei
Method: The confirmed hit list was narrowed by applying the following filters: a 30% cut-off value, absence of undesirable structural features (e.g. electrophiles, peroxides, and Michael acceptors) and reduced physicochemical risk (maximum five aromatic rings and PFI <8)([Leeson and Young, 2015]). […] Briefly, the selected bacteria were cultured on the Luria-Bertani agar overnight at 37 °C (Campylobacter isolates were grown in 2.5% Laked Horse Blood cation-adjusted Mueller Hinton medium (CAMHB, Sigma Aldrich) and incubated in microaerophilic conditions (10% CO2, 5% O2 and 85% N2) at 42 °C); colonies were added to sterile PBS to form 0.5 McFarland solutions. All chemical testing was performed at an initial concentration of 10 μM. Bacterial suspensions were evenly spread on Mueller-Hinton agar by sterile cotton swabs (Medical Wire – MWE). […] Plates were incubated overnight at 37 °C. The activity of the chemical was recorded as being active (yes) or non-active (no) for each of the tested chemicals.
MICs were evaluated using the micro dilution assay in Müller Hinton broth using 1 mM chemical stock solutions, and a final concentration of 5 × 10^5 CFU/mL bacteria. Twofold serial dilutions were prepared in 96-well plates at concentration ranging from 1 μM to 7.8 nM. 100 μL bacteria were added and incubated at 37 °C overnight; 10 μl of each solution was dropped onto Luria-Bertani agar and incubated overnight at 37 °C for the detection of bacterial growth. Results were interpreted as minimal concentration necessary to inhibit growth.

Salmonella = experiment: MIC by micro dilution, clinical Salmonella isolates from Vietnam; type: cell-based; settings: 117 Salmonella from diarrhoeal cases in Vietnam; read-out: median MIC
Source text: Selected compounds, including Tebipenem, were profiled against a panel of […] clinical isolates of enteric pathogens comprised of Shigella (Vietnam and Kenya; n = 135), non-typhoidal Salmonella (Vietnam; n = 117), Campylobacter (Vietnam; n = 75), and various pathogenic E. coli species (Vietnam; n = 7) ([Butcher et al., 2014]). The antimicrobial susceptibility profile of these organisms is described in Supplementary file 1.
Compound screening and dose response assays have been described previously ([Van Voorhis et al., 2016]; [Wiegand et al., 2008]). Briefly, the selected bacteria were cultured on the Luria-Bertani agar overnight at 37 °C (Campylobacter isolates were grown in 2.5% Laked Horse Blood cation-adjusted Mueller Hinton medium (CAMHB, Sigma Aldrich) and incubated in microaerophilic conditions (10% CO2, 5% O2 and 85% N2) at 42 °C); colonies were added to sterile PBS to form 0.5 McFarland solutions. […] The activity of the chemical was recorded as being active (yes) or non-active (no) for each of the tested chemicals. A non-active result was recorded when there was no evidence of bacterial inhibition, and the culture area was indistinguishable from the negative control.
MICs were evaluated using the micro dilution assay in Müller Hinton broth using 1 mM chemical stock solutions, and a final concentration of 5 × 10^5 CFU/mL bacteria. […]

S. flexneri 2457T = experiment: microbe, parasite or virus in culture; type: cell-based, Shigella flexneri
Method: Bacterial inoculum without drug was used as positive control. The bacteria inoculum (1 × 10^5 CFU/mL) for the assay was prepared by diluting a log phase incubated at 37 °C for 3–4 hr. Mueller Hinton agar plates were prepared containing 4xMIC and 10xMIC and inoculated with different concentrations of bacteria (1 × 10^9, 1 × 10^8, and 1 × 10^7 CFU/mL). Plates were prepared in duplicate and incubated overnight at 37 °C. The frequency of spontaneous resistant mutants was calculated by using the formula: FoR = resistant CFUs/inoculum CFUs. The mean of the two plates was reported.

[1] = test system: clinical isolates of Shigella (S. flexneri EG478, S. flexneri_01_0417, S. sonnei_02_1181); experiment: Time-kill curve assays; type: cell-based, Shigella spp.
Method: Time-kill curve assays were performed in 20 mL volume in 50 mL tubes by culturing 5 × 10^5 CFU/mL Shigella spp. in Müller Hinton broth in the presence of four antimicrobial concentrations in doubling dilutions ranging from 0.5xMIC to 4xMIC. Bacteria were grown with agitation at 200 rpm at 37 °C and monitored over a time-course of 24 hr (0, 2, 4, 6, 8, and 24 hr). For each concentration and time point, 100 μL of bacterial culture were diluted and used to inoculate Luria-Bertani agar plates that were incubated at 37 °C overnight. Next, bacterial colonies were enumerated.

[2] = test system: enteric pathogens (Salmonella spp., Shigella spp., K. pneumoniae, and E. coli); experiment: Checkerboard synergy assay (FIC), Gram-negative MDR clinical isolates; type: cell-based; settings: Tebipenem/LpxC inhibitor combination, all tested enteric pathogens
Method: Before initiating drug combination assays, the MIC values for both compounds were determined against Shigella (Sf2457T), Salmonella (St14028), and E. coli (EcDH5a) isolates. […] 20 μM moxifloxacin was used as negative control (100% bacterial growth inhibition) in one column and DMSO as positive control (100% bacterial growth). A total of 25 µl of 1 × 10^6 CFU/mL bacterial culture was added to each well of a 384-well plate (μClear; Greiner Bio‐One). Plates were incubated overnight at 37 °C. Next, 10 µl of resazurin were added and plates were incubated at room temperature for 3 hr. Bacterial growth inhibition was measured by fluorescence in a Envision plate reader (PerkinElmer). All assays were performed in duplicate. Combination studies with clinical isolates were performed in 96-well plates (Greiner) adding 200 μl of 1 × 10^6 CFU/mL bacterial culture and following the same checkboard titration method as described above. The range of final working concentrations of each antimicrobial was adjusted based on the MIC of each selected organism.
MICs were determined for drug A and drug B alone and in combination. […]

## C[C@@H](O)[C@H]1C(=O)N2C(C(=O)O)=C(SC3CN(C4=NCCS4)C3)[C@H](C)[C@H]12 [Tebipenem]
S. sonnei 02–1181
  bactericidal activity: greatest bactericidal activity
Salmonella
  MIC: < 0.1 µM
S. flexneri 2457T; S. flexneri 2457T, 4 x and 10 x MIC
  frequency of spontaneous resistance: < 1.2 × 10^–9
S. flexneri 2457T; Shigella flexneri, 2457T
  MIC: 0.02 µM (≈ 7.67 ng/mL)
[1]; higher concentrations (2–4 x MIC), 24 hr
  time kill, antibacterial activity: protracted antibacterial activity
[1]; lower concentrations (0.5–1 x MIC), after 6 hr exposure, all three isolates
  time kill, population behaviour: Population rebounds occurred
[2]
  interaction (FIC index): indifference or partial synergy
